Source: patent US6569845B1, “Neovascularization inhibitor containing dienogest as the active ingredient” (Mochida Pharmaceutical Co., Ltd., priority 1997, dated 2003)

Tests used:
rabbit cornea = rabbit cornea assay system (Yamamoto); cited from earlier work
[1] = test system: angiogenesis induced by the S-180 tumor cells; experiment: Murine dorsal air sac assay, angiogenesis induced by S-180 tumor cells; type: in vivo; conditions: mouse
Method: Suppressing Action of Angiogenesis by Murine Dorsal Air Sac Assay According to the method by Iwabana et al. (Cancer Invasion & Metastatic Research Manual, Kinpodo, pp. 172-176, 1995), suppressing action of angiogenesis was tested by the murine dorsal skin method. S-180 tumor cell (murine derived sarcoma) suspended in phosphate buffered saline (PBS) was injected into a Millipore chamber, and the injection opening was closed with a nylon stopper. With an injection syringe, air (10 ml) was injected into the dorsal skin of a mouse anesthetized with Nembutal, to prepare an […], into which the Millipore chamber was transplanted. Animals were preliminarily divided into 4 groups; a Millipore chamber injected with PBS instead of S-180 tumor cells was transplanted into animals of a non-treatment control group (group A), which were then orally given 0.5% CMC carboxymethyl cellulose sodium (0.5% CMC, Wako Pure Chemical Industries, Co.) for 5 days. […] After placing a black ring of the same diameter as the diameter of these chambers at the position of the chambers in place, the number of newly formed vessels of a length of 3 mm or more inside the ring was counted under a stereoscopic microscope. […] Comparison between two groups was done and analyzed by the Wilcoxon's rank sum test; while comparison between multiple groups was done and analyzed by the Dunnett's multiple comparison.

[2] = test system: chorioallantoic membrane of chick fertilized egg; experiment: CAM (chick embryo chorioallantoic membrane) assay, suppressing action of angiogenesis; type: in vivo; conditions: for Number of choriallantoic membrane with non-vascular region: EV pellet, 2 days at 37° C.
Method: Suppressing Action of Angiogenesis According to CAM (Chick Embryo Chorioallantoic Membrane) Assay
According to the method by Hayashi, et al. (Mechanism of Angiogenesis and Diseases, Medical Journal, pp. 255-266, 1996), the suppressing action of angiogenesis was tested by the CAM assay using chorioallantoic membrane of chick fertilized egg. More specifically, a hole was opened through a chick fertilized egg incubated in an incubator at 37° C. for 4 or 5 days, and then, a silicone ring of an outer diameter of 5 mm and an inner diameter of 3 mm was gently placed on the center of the chorioallantoic membrane, followed by placement of an EV (ethylene-vinyl acetate copolymer) pellet containing dienogest or MPA inside the ring. A chorioallantoic membrane on which an EV pellet with no sample was placed was used as a control group. After incubation at 37° C. for 2 days, a fat emulsion preparation was injected into each chorioallantoic membrane, so as to get a clear view of the vascular network on the chorioallantoic membrane, for subsequent observation. Formation of a non-vascular region of a diameter of 3 mm or more on the chorioallantoic membrane was defined as positive suppressing action on angiogenesis.
a: frequency in % of the occurrence of non-vascular region, in parenthesis.
b: Data of suppressing action on angiogenesis is statistically tested by the Fisher's accurate probability test.

Row | Compound | activity on angiogenic suppression (rabbit cornea) | suppression of angiogenesis induced by the S-180 tumor cells (angiogenesis index) ([1]; group C, 0.1 mg/kg orally for 5 days) | suppression of angiogenesis induced by the S-180 tumor cells (angiogenesis index) ([1]; group D, 1 mg/kg orally for 5 days, vs solvent control group (p<0.001)) | dose that significantly increased the number of chorioallantoic membranes with non-vascular region ([2]; compared with the control group, dose-dependent) [μg/egg] | frequency of the occurrence of non-vascular region ([2]; dose 0.01 μg/egg) [%] | Number of choriallantoic membrane with non-vascular region ([2]; dose 0.01 μg/egg) | frequency of the occurrence of non-vascular region ([2]; dose 0.1 μg/egg) [%] | Number of choriallantoic membrane with non-vascular region ([2]; dose 0.1 μg/egg) | frequency of the occurrence of non-vascular region ([2]; dose 1 μg/egg) [%] | Number of choriallantoic membrane with non-vascular region ([2]; dose 1 μg/egg) | frequency of the occurrence of non-vascular region ([2]; dose 10 μg/egg) [%] | Number of choriallantoic membrane with non-vascular region ([2]; dose 10 μg/egg) | frequency of the occurrence of non-vascular region ([2]; dose 100 μg/egg) [%] | Number of choriallantoic membrane with non-vascular region ([2]; dose 100 μg/egg) | frequency of the occurrence of non-vascular region ([2]; dose 1000 μg/egg) [%] | Number of choriallantoic membrane with non-vascular region ([2]; dose 1000 μg/egg) | number of chorioallantoic membranes with non-vascular region compared with the control group ([2]; 100 μg/egg)
1 | CC(=O)[C@H]1CC[C@H]2[C@@H]3CCC4=CC(=O)CC[C@]4(C)[C@H]3CC[C@]12C [progesterone] | does not have any activity on angiogenic suppression | – | – | – | – | – | – | – | – | – | – | – | – | – | – | – | –
2 | C[C@]12CCC3=C4CCC(=O)C=C4CC[C@H]3[C@@H]1CC[C@@]2(O)CC#N [Dienogest, 17 α-cyanomethyl-17 β-hydroxy-estra-4, 9(10)-dien-3-one] | – | weak suppression of angiogenesis | significantly suppressed angiogenesis | ≥ 0.01 | 13.3 | 2 | 23.5 | 4 | 48.1 | 13 | 54.2 | 13 | 83.3 | 20 | 91.7 | 22 | –
3 | CC(=O)O[C@]1(C(C)=O)CC[C@H]2[C@@H]3C[C@H](C)C4=CC(=O)CC[C@]4(C)[C@H]3CC[C@@]21C [MPA, medroxyprogesterone acetate] | – | – | – | – | – | – | – | – | – | – | – | – | 50.0 | 4 | – | – | significantly increased
